“Also recorded” adds a separate entry of the source.
Assay: Plasma pharmacokinetics after single and repeated oral doses
Assay type: in vivo, healthy adult participants (human)
Conditions: for AUC ratio, point estimate / AUClast ratio, point estimate / Cmax ratio, point estimate: Part 1a fasted
Experimental: In Part 1a, plasma samples were collected before dosing and at 10 post-dose timepoints on Day 1 (30 minutes, 1 hour, followed by every hour until 6 hours, and then every 2 hours until 12 hours), and single samples on Day 2 (at 24 hours) and Day 3 (at 48 hours). In Part 1b, timepoints included at least pre-dose and at 10 post-dose timepoints, including plasma sampling at the same time of CSF sampling. In Part 2, on Day 1 and Day 14, plasma samples were collected at pre-dose and at 10 to 11 post-dose timepoints. In addition, plasma samples were collected on Days 2, 3, 5, 7, 11, 15, 16, and 17.
PK population included all participants exposed to Compound 1 with no major or critical deviations related to Compound 1 and for whom PK data were considered sufficient and interpretable. PK parameters were summarized by descriptive statistics for each dose level group. Distribution of Tmax values was represented by histogram plots for each dose level group. In Part 1a, dose proportionality was assessed using a linear model on Cmax, AUClast and AUC. In Part 2, all PK analyses were performed separately for each regimen (OD and BID). Steady state was assessed on Ctrough using a non-linear model. Accumulation was assessed using a linear model on log-transformed accumulation ratio. Dose proportionality was assessed using a power model on Cmax and AUCtau on Day 1 and Day 14, separately. Variance components of log-transformed Cmax and AUCtau were estimated using a linear model. In Part 1b, CSF concentration was described by dose level group and CSF to plasma unbound concentration ratios calculated were described in the same way. 4β-hydroxycholesterol on Day 14 versus Day 1 pre-dose concentration ratios were summarized using descriptive statistics by dose level group and point estimates with 90% confidence interval (90% CI) for the geometric mean of the log-transformed Day14/Day1 ratio was calculated in Part 2.

[1] = 20 mg vs. 10 mg (dose increase = 2)
[2] = 30 mg vs. 10 mg (dose increase = 3)
[3] = 30 mg vs. 20 mg (dose increase = 1.5)
[4] = 40 mg vs. 10 mg (dose increase = 4)
[5] = 40 mg vs. 20 mg (dose increase = 2)
[6] = 40 mg vs. 30 mg (dose increase = 1.33)

CC(C)(C(=O)N1CCOc2c(C#N)cncc2C1)C(F)F [Compound 1, 4-(3,3-difluoro-2,2-dimethyl-propanoyl)-3,5-dihydro-2H-pyrido[3,4-f] [1,4]oxazepine-9-carbonitrile]
Accumulation ratio (AUC0-24h), Day 14/Day 1 (10 mg QD): 1.31 | Accumulation ratio (Cmax), Day 14/Day 1 (10 mg QD): 1.00 | Accumulation ratio (AUC0-12h), Day 14/Day 1 (15 mg BID): 1.45 | Accumulation ratio (Cmax), Day 14/Day 1 (15 mg BID): 1.24 | Accumulation ratio (AUC0-12h), Day 14/Day 1 (20 mg BID): 1.63 | Accumulation ratio (Cmax), Day 14/Day 1 (20 mg BID): 1.71 | Accumulation ratio (AUC0-24h), Day 14/Day 1 (20 mg QD): 1.13 | Accumulation ratio (Cmax), Day 14/Day 1 (20 mg QD): 1.06 | Cmax (20 mg QD, MAD study, read-out: Mean observed Cmax at steady state): 860 nM | Within-subject variability for AUCtau (BID cohorts): 11.3% | Within-subject variability for Cmax (BID cohorts): 17.9% | Total variability for AUCtau (BID dosing regimen): 28.4% | Total variability for Cmax (BID dosing regimen): 32.2% | Dose proportionality: AUC0-24h (AUCtau) ratio for dose ratio (r) = 2 (Day 14, 10 and 20 mg QD): 1.51 | Dose proportionality: Cmax ratio for dose ratio (r) = 2 (Day 14, 10 and 20 mg QD): 1.58 | Dose proportionality: AUC0-12h (AUCtau) ratio for dose ratio (r) = 1.3333 (Day 14, 15 and 20 mg BID): 1.32 | Dose proportionality: Cmax ratio for dose ratio (r) = 1.3333 (Day 14, 15 and 20 mg BID): 1.31 | AUC ratio, point estimate [1]: 2.07 | AUClast ratio, point estimate [1]: 2.11 | Cmax ratio, point estimate [1]: 2.08 | AUC ratio, point estimate [2]: 2.09 | AUClast ratio, point estimate [2]: 2.16 | Cmax ratio, point estimate [2]: 3.60 | AUC ratio, point estimate [3]: 1.01 | AUClast ratio, point estimate [3]: 1.02 | Cmax ratio, point estimate [3]: 1.73 | AUC ratio, point estimate [4]: 4.43 | AUClast ratio, point estimate [4]: 4.56 | Cmax ratio, point estimate [4]: 4.79 | AUC ratio, point estimate [5]: 2.15 | AUClast ratio, point estimate [5]: 2.16 | Cmax ratio, point estimate [5]: 2.31 | AUC ratio, point estimate [6]: 2.12 | AUClast ratio, point estimate [6]: 2.11 | Cmax ratio, point estimate [6]: 1.33 | AUC, GM (Part 1a single 10 mg fasted): 1170 ng·h/mL | CL/F, GM (Part 1a single 10 mg fasted): 8.56 L/h | CL/F, mean (Part 1a single 10 mg fasted): 9.11 L/h | Cmax, GM (Part 1a single 10 mg fasted): 116 ng/mL | T1/2z, GM (Part 1a single 10 mg fasted): 7.97 h | T1/2z, mean (Part 1a single 10 mg fasted): 8.22 h | Tlast, median (Part 1a single 10 mg fasted): 48.0 h | Tmax, median (Part 1a single 10 mg fasted): 1.02 h | AUC, GM (Part 1a single 20 mg fasted): 2410 ng·h/mL | AUC, mean (Part 1a single 20 mg fasted): 2450 ng·h/mL | AUClast, GM (Part 1a single 20 mg fasted): 2360 ng·h/mL | AUClast, mean (Part 1a single 20 mg fasted): 2400 ng·h/mL | CL/F, GM (Part 1a single 20 mg fasted): 8.28 L/h | CL/F, mean (Part 1a single 20 mg fasted): 8.43 L/h | Cmax, GM (Part 1a single 20 mg fasted): 241 ng/mL | T1/2z, GM (Part 1a single 20 mg fasted): 7.48 h | T1/2z, mean (Part 1a single 20 mg fasted): 7.63 h | Tlast, median (Part 1a single 20 mg fasted): 48.0 h | Tmax, median (Part 1a single 20 mg fasted): 1.50 h | AUC, GM (Part 1a single 30 mg fasted): 2440 ng·h/mL | AUClast, GM (Part 1a single 30 mg fasted): 2420 ng·h/mL | CL/F, GM (Part 1a single 30 mg fasted): 12.3 L/h | CL/F, mean (Part 1a single 30 mg fasted): 13.1 L/h | Cmax, GM (Part 1a single 30 mg fasted): 417 ng/mL | T1/2z, GM (Part 1a single 30 mg fasted): 5.70 h | T1/2z, mean (Part 1a single 30 mg fasted): 5.99 h | Tlast, median (Part 1a single 30 mg fasted): 48.0 h | Tmax, median (Part 1a single 30 mg fasted): 1.00 h | AUC, GM (Part 1a single 40 mg fasted): 5180 ng·h/mL | AUClast, GM (Part 1a single 40 mg fasted): 5120 ng·h/mL | CL/F, GM (Part 1a single 40 mg fasted): 7.72 L/h | CL/F, mean (Part 1a single 40 mg fasted): 8.15 L/h | Cmax, GM (Part 1a single 40 mg fasted): 555 ng/mL | T1/2z, GM (Part 1a single 40 mg fasted): 6.29 h | T1/2z, mean (Part 1a single 40 mg fasted): 6.40 h | Tlast, median (Part 1a single 40 mg fasted): 48.0 h | Tmax, median (Part 1a single 40 mg fasted): 1.50 h | Dose proportionality of exposures (Part 1a, between 10 and 40 mg): no major deviation from dose proportionality; also recorded: increased according to dose proportionality | AUC, GM (Part 1b single 10 mg fed): 1370 ng·h/mL | AUClast, GM (Part 1b single 10 mg fed): 1170 ng·h/mL | CL/F, GM (Part 1b single 10 mg fed): 7.27 L/h | CL/F, mean (Part 1b single 10 mg fed): 7.63 L/h | Cmax, GM (Part 1b single 10 mg fed): 111 ng/mL | Cmax, mean (Part 1b single 10 mg fed): 115 ng/mL | T1/2z, GM (Part 1b single 10 mg fed): 7.97 h | T1/2z, mean (Part 1b single 10 mg fed): 8.09 h | Tlast, median (Part 1b single 10 mg fed): 24.0 h | Tmax, median (Part 1b single 10 mg fed): 4.24 h | AUC, GM (Part 1b single 40 mg fed): 4740 ng·h/mL | AUClast, GM (Part 1b single 40 mg fed): 3960 ng·h/mL | CL/F, GM (Part 1b single 40 mg fed): 8.43 L/h | CL/F, mean (Part 1b single 40 mg fed): 8.92 L/h | Cmax, GM (Part 1b single 40 mg fed): 374 ng/mL | T1/2z, GM (Part 1b single 40 mg fed): 8.03 h | T1/2z, mean (Part 1b single 40 mg fed): 8.31 h | Tlast, median (Part 1b single 40 mg fed): 24.0 h | Tmax, median (Part 1b single 40 mg fed): 4.5 h | Mean T1/2z across doses and regimens (Part 2, Day 14): 7.3 to 9.1 h | Median time to steady state of plasma concentrations (Part 2, after first administration, irrespective of dose or regimen): 1.4 to 2 days

From patent US20240100065A1, “METHODS FOR TREATING RECEPTOR-INTERACTING PROTEIN KINASE 1-MEDIATED DISEASES” (Genzyme Corporation, priority 2022, published 2024)
